{
  "source": "patent EP0707004A1",
  "about": "“1-Arylalcenyl 4-arylmethylpiperazinderivatives, process for their preparation and pharmaceutical composition containing them” (ADIR ET COMPAGNIE, priority 1994, dated 1996)",
  "test_system": "hyperactivité induite par la N-allylnormétazocine",
  "experiment": "Antagonism of N-allylnormetazocine-induced hyperactivity",
  "assay_type": "in vivo",
  "conditions": "dose 32 mg.kg⁻¹; rats; N-allylnormetazocine 50 mg/kg subcutaneous",
  "description": "Ce test a été mis au point par Snyder S.H. et al (J. Neuropsychiatry, 1989, 1 : 7-15). La N-allylnormetazocine ((+) SKF 10047) induit un comportement psychotique chez l'homme et est le prototype d'agoniste pour les récepteurs σ.\nLa mesure de l'hyperactivité induite par ce produit est donc utilisée comme modèle alternatif pour détecter l'activité antipsychotique des composés agissant sur les récepteurs σ.\nUn groupe de 12 rats est traité avec le composé à tester avant l'administration sous-cutanée de 50 mg/kg de la N-allylnormetazocine. 30 minutes plus tard, les animaux sont placés dans un actimètre pendant 30 minutes.\nL'halopéridol est utilisé comme composé de référence.",
  "data": [
    {"smiles": "CCC(=Cc1ccccc1)C(=O)N1CCN(Cc2ccccc2)CC1", "note": "[Exemple 9, 1-(3-phényl-2-éthylprop-2-ènoyl)-4-benzylpipérazine]", "values": [
      {"measurement": "antagonisme de l'hypermotilité induite par la N-allylnormétazocine", "result": 42, "unit": "%"}
    ]}
  ]
}
